Data: US11149031B2, “Substituted N-(3-fluoropropyl)-pyrrolidine compounds, processes for their preparation and therapeutic uses thereof” (SANOFI, priority 2016, dated 2021)
Read-outs that look alike come from different tables or passages of the source.

Legend:
[1] = tested on: MCF7 cells expressing mutant estrogen receptor Tyr 537 Ser; experiment: Test B: cell proliferation/viability assay (CellTiter-Glo) on MCF7 Tyr 537 Ser mutant; format: cell-based; conditions: Homo sapiens, MCF7, 168 h, MCF7 cells expressing ER Tyr 537 Ser mutant, 7 days of compound exposure, read-out: proliferation MCF7 Y537S IC50
In short: (§1)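 Seven-day compound exposure, 9 concentrations from 3 to 0.000001 μM, in phenol red-free medium with 5% charcoal-stripped serum. ER Tyr537Ser and Asp538Gly lines derive from transfected MCF7 selected to grow without estradiol. Viability from CellTiter-Glo luminescence, background-corrected, as percent of untreated.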

[2] = tested on: MCF7 cells (breast tumor cells) WT; experiment: Test B: cell proliferation/viability assay (CellTiter-Glo) on MCF7 WT; format: cell-based; conditions: Homo sapiens, MCF7, 168 h, 7 days of compound exposure
In short: as §1

[3] = biological target: His6-ERα298-554 Y537S mutant (ERα ligand-binding domain) (Homo sapiens (Human), UniProt P03372, Y537S); experiment: Test A: biochemical antagonist activity, LanthaScreen TR-FRET ERα coactivator assay, Y537S mutant; conditions: read-out: Antagonism Y537S IC50
Chain of His6-ERα298-554 Y537S mutant (ERα ligand-binding domain) (P03372 298-554 Y537S): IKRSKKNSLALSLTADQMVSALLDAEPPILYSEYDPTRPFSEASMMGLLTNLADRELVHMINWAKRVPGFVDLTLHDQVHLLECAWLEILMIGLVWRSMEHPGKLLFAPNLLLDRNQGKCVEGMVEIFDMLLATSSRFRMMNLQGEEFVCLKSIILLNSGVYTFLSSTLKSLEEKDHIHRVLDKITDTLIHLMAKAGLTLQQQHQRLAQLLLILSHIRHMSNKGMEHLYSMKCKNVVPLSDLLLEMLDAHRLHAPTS
In short: (§2)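 Compounds were added to receptor LBD (0.5 nM), terbium-labelled His6 antibody (0.5 nM), PGC1a coactivator peptide (250 nM) and estradiol at 3 nM or 10 nM. After incubating overnight at room temperature, the 520:495 nm ratio gave IC50 values by four-parameter logistic regression.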

ERα in MCF7 cells = ERα in MCF7 cells (Homo sapiens (Human), UniProt P03372); experiment: Test C: estrogen receptor degradation activity, ERα in cell western assay in MCF7 cells; format: cell-based; conditions: for DC50: 4 hours post compound addition, ERα in cell western, read-out: Degradation IC50; for % Degradation at 3 μM: 4 hours, relative to fulvestrant
Chain of ERα in MCF7 cells (P03372 whole entry): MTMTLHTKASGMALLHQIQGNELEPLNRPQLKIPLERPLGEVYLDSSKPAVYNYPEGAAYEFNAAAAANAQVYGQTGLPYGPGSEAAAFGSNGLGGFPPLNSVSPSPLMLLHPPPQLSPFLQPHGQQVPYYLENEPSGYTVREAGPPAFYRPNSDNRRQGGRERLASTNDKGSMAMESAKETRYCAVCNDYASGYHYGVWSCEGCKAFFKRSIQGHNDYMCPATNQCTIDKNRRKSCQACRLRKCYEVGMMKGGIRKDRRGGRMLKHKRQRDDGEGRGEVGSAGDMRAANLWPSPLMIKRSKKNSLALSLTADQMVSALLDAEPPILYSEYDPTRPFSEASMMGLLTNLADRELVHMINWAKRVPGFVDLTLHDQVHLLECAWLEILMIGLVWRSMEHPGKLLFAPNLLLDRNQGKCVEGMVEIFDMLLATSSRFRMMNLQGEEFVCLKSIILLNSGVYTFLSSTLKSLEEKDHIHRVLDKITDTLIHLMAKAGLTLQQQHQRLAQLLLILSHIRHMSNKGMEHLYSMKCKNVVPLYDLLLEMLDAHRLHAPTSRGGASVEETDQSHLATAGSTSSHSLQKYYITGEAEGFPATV
In short: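 In-cell western: ERα level (green) against DNA stain Syto-64 (red) by integrated intensity. MCF7 cells in hormone-depleted medium exposed 4 h to compound at 3-0.000018 μM final (1:5 series); fulvestrant 0.1 μM as positive control.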

[4] = biological target: His6-ERα298-554 WT (ERα ligand-binding domain) (Homo sapiens (Human), UniProt P03372); experiment: Test A: biochemical antagonist activity, LanthaScreen TR-FRET ERα coactivator assay, WT; conditions: read-out: Antagonism WT IC50
Chain of His6-ERα298-554 WT (ERα ligand-binding domain) (P03372 298-554): as the sequence (P03372 298-554 Y537S) above, with S240Y counted along it
In short: as §2

[5] = tested on: MCF7 cells expressing mutant estrogen receptor Asp 538 Gly; experiment: Test B: cell proliferation/viability assay (CellTiter-Glo) on MCF7 Asp 538 Gly mutant; format: cell-based; conditions: Homo sapiens, MCF7, 168 h, MCF7 cells expressing ER Asp 538 Gly mutant, 7 days of compound exposure, read-out: proliferation MCF7 D538G IC50
In short: as §1

[6] = biological target: His6-ERα298-554 D538G mutant (ERα ligand-binding domain) (Homo sapiens (Human), UniProt P03372, D538G); experiment: Test A: biochemical antagonist activity, LanthaScreen TR-FRET ERα coactivator assay, D538G mutant; conditions: read-out: Antagonism D538G IC50
Chain of His6-ERα298-554 D538G mutant (ERα ligand-binding domain) (P03372 298-554 D538G): as the sequence (P03372 298-554 Y537S) above, with S240Y, D241G counted along it
In short: as §2

[7] = asterisk (*): protocol using 10 nM estradiol

Compound: Oc1ccc2c(c1)SCCC(c1ccc3cc[nH]c3c1)=C2c1ccc(O[C@H]2CCN(CCCF)C2)cc1 [Example 172, 5-[4-[(3S)-1-(3-fluoropropyl)pyrrolidin-3-yl]oxyphenyl]-4-(1H-indol-6-yl)-2,3-dihydro-1-benzothiepin-8-ol]
- IC50 [1]: 12 nM
- IC50 [2]: 0.2 nM
- IC50 ([3]; protocol with 3 nM estradiol): 18 nM
- DC50 (ERα in MCF7 cells): 0.4 nM
- % Degradation at 3 μM (ERα in MCF7 cells): 87%
- IC50 ([4]; protocol with 3 nM estradiol): 6 nM
- IC50 [5]: 2 nM
- IC50 ([6]; protocol with 3 nM estradiol): 24 nM

Compound: CC(C)(C)c1ccc(C2=C(c3ccc(O[C@H]4CCN(CCCF)C4)cc3)c3ccc(O)cc3SCC2)cc1 [Example 216, 4-(4-tert-butylphenyl)-5-[4-[(3S)-1-(3-fluoropropyl)pyrrolidin-3-yl]oxyphenyl]-2,3-dihydro-1-benzothiepin-8-ol]
- IC50 [1]: 13 nM
- IC50 [2]: 0.6 nM
- IC50 [3, 7]: 543 nM
- DC50 (ERα in MCF7 cells): 0.2 nM
- % Degradation at 3 μM (ERα in MCF7 cells): 88%
- IC50 [4, 7]: 33 nM
- IC50 [5]: 1 nM
- IC50 [6, 7]: 662 nM

Compound: Oc1ccc2c(c1)SCCC(c1ccc(OCF)cc1)=C2c1ccc(O[C@H]2CCN(CCCF)C2)cc1 [Example 218, 4-[4-(fluoromethoxy)phenyl]-5-[4-[(3S)-1-(3-fluoropropyl)pyrrolidin-3-yl]oxyphenyl]-2,3-dihydro-1-benzothiepin-8-ol]
- IC50 [1]: 1 nM
- IC50 [2]: 0.1 nM
- IC50 [3, 7]: 22 nM
- DC50 (ERα in MCF7 cells): 0.2 nM
- % Degradation at 3 μM (ERα in MCF7 cells): 78%
- IC50 [4, 7]: 1 nM
- IC50 [5]: 0.1 nM
- IC50 [6, 7]: 25 nM

Compound: [2H]C([2H])([2H])Oc1ccc(C2=C(c3ccc(O[C@H]4CCN(CCCF)C4)cc3)c3ccc(O)cc3SCC2)c(F)c1 [Example 209, 5-[4-[(3S)-1-(3-fluoropropyl)pyrrolidin-3-yl]oxyphenyl]-4-[2-fluoro-4-(trideuteriomethoxy)phenyl]-2,3-dihydro-1-benzothiepin-8-ol]
- IC50 [1]: 4 nM
- IC50 [2]: 0.3 nM
- IC50 [3, 7]: 20 nM
- DC50 (ERα in MCF7 cells): 0.4 nM
- % Degradation at 3 μM (ERα in MCF7 cells): 92%
- IC50 [4, 7]: 2 nM
- IC50 [5]: 0.7 nM
- IC50 [6, 7]: 35 nM

Compound: Oc1ccc2c(c1)SCC(c1ccc3c(c1)OCCO3)=C2c1ccc(O[C@H]2CCN(CCCF)C2)cc1 [Example 28, 3-(2,3-dihydro-1,4-benzodioxin-6-yl)-4-[4-[(3S)-1-(3-fluoropropyl)pyrrolidin-3-yl]oxyphenyl]-2H-thiochromen-7-ol]
- IC50 [1]: 11 nM
- IC50 [2]: 0.7 nM
- IC50 [3, 7]: 41 nM
- DC50 (ERα in MCF7 cells): 0.3 nM
- % Degradation at 3 μM (ERα in MCF7 cells): 80%
- IC50 [4, 7]: 4 nM
- IC50 [5]: 2 nM
- IC50 [6, 7]: 68 nM

Compound: CCNc1ccc(C2=C(c3ccc(O[C@H]4CCN(CCCF)C4)cc3)c3ccc(O)cc3SCC2)c(F)c1 [Example 200, 4-[4-(ethylamino)-2-fluoro-phenyl]-5-[4-[(3S)-1-(3-fluoropropyl)pyrrolidin-3-yl]oxyphenyl]-2,3-dihydro-1-benzothiepin-8-ol]
- IC50 [1]: 12 nM
- IC50 [2]: 0.7 nM
- IC50 [3, 7]: 33 nM
- DC50 (ERα in MCF7 cells): 0.5 nM
- % Degradation at 3 μM (ERα in MCF7 cells): 91%
- IC50 [4, 7]: 3 nM
- IC50 [5]: 2 nM
- IC50 [6, 7]: 51 nM

Compound: Oc1ccc2c(c1)CCCC(c1ccc(Cl)c(F)c1)=C2c1cnc(O[C@H]2CCN(CCCF)C2)cn1 [Example 243, 6-(4-chloro-3-fluoro-phenyl)-5-[5-[(3S)-1-(3-fluoropropyl)pyrrolidin-3-yl]oxypyrazin-2-yl]-8,9-dihydro-7H-benzo[7]annulen-2-ol]
- IC50 [1]: 3 nM
- IC50 [2]: 0.2 nM
- IC50 [3, 7]: 179 nM
- DC50 (ERα in MCF7 cells): 0.3 nM
- % Degradation at 3 μM (ERα in MCF7 cells): 91%
- IC50 [4, 7]: 12 nM
- IC50 [5]: 0.5 nM
- IC50 [6, 7]: 386 nM

Compound: Oc1ccc2c(c1)OCCC(c1ccc3c(c1)NCC3)=C2c1ccc(O[C@H]2CCN(CCCF)C2)cc1 [Example 116, 5-[4-[(3S)-1-(3-fluoropropyl)pyrrolidin-3-yl]oxyphenyl]-4-indolin-6-yl-2,3-dihydro-1-benzoxepin-8-ol]
- IC50 [1]: 150 nM
- IC50 [2]: 6 nM
- IC50 ([3]; protocol with 3 nM estradiol): 86 nM
- DC50 (ERα in MCF7 cells): 2 nM
- % Degradation at 3 μM (ERα in MCF7 cells): 88%
- IC50 ([4]; protocol with 3 nM estradiol): 31 nM
- IC50 [5]: 17 nM
- IC50 ([6]; protocol with 3 nM estradiol): 120 nM

Compound: Oc1ccc2c(c1F)OCCC(c1ccc3c(c1)CCN3)=C2c1ccc(O[C@H]2CCN(CCCF)C2)cc1 [Example 107, 9-fluoro-5-[4-[(3S)-1-(3-fluoropropyl)pyrrolidin-3-yl]oxyphenyl]-4-indolin-5-yl-2,3-dihydro-1-benzoxepin-8-ol]
- IC50 [1]: 147 nM
- IC50 [2]: 19 nM
- IC50 ([3]; protocol with 3 nM estradiol): 55 nM
- DC50 (ERα in MCF7 cells): 2 nM
- % Degradation at 3 μM (ERα in MCF7 cells): 82%
- IC50 ([4]; protocol with 3 nM estradiol): 19 nM
- IC50 [5]: 33 nM
- IC50 ([6]; protocol with 3 nM estradiol): 79 nM

Compound: Cc1ccc(C2=C(c3ccc(O[C@H]4CCN(CCCF)C4)cc3)c3cc(Cl)c(O)cc3OCC2)c(F)c1 [Example 145, 7-chloro-4-(2-fluoro-4-methyl-phenyl)-5-[4-[(3S)-1-(3-fluoropropyl)pyrrolidin-3-yl]oxyphenyl]-2,3-dihydro-1-benzoxepin-8-ol]
- IC50 [1]: 124 nM
- IC50 [2]: 9 nM
- IC50 ([3]; protocol with 3 nM estradiol): 3270 nM
- DC50 (ERα in MCF7 cells): 0.5 nM
- % Degradation at 3 μM (ERα in MCF7 cells): 82%
- IC50 ([4]; protocol with 3 nM estradiol): 256 nM
- IC50 [5]: 17 nM
- IC50 ([6]; protocol with 3 nM estradiol): 4000 nM

Compound: Oc1ccc2c(c1)SCCC(c1ccc(OC(F)F)cc1F)=C2c1ccc(O[C@H]2CCN(CCCF)C2)cc1 [Example 213, 4-[4-(difluoromethoxy)-2-fluoro-phenyl]-5-[4-[(3S)-1-(3-fluoropropyl)pyrrolidin-3-yl]oxyphenyl]-2,3-dihydro-1-benzothiepin-8-ol]
- IC50 [1]: 2 nM
- IC50 [2]: 0.3 nM
- IC50 [3, 7]: 55 nM
- DC50 (ERα in MCF7 cells): 0.9 nM
- % Degradation at 3 μM (ERα in MCF7 cells): 86%
- IC50 [4, 7]: 4 nM
- IC50 [5]: 0.2 nM
- IC50 [6, 7]: 96 nM

Compound: Oc1ccc2c(c1)CCCC(c1ccc(OC(F)(F)F)cc1)=C2c1ccc(O[C@H]2CCN(CCCF)C2)nc1 [Example 253, 5-[6-[(3S)-1-(3-fluoropropyl)pyrrolidin-3-yl]oxy-3-pyridyl]-6-[4-(trifluoromethoxy)phenyl]-8,9-dihydro-7H-benzo[7]annulen-2-ol]
- IC50 [1]: 2 nM
- IC50 [2]: 0.1 nM
- IC50 [3, 7]: 95 nM
- DC50 (ERα in MCF7 cells): 0.2 nM
- % Degradation at 3 μM (ERα in MCF7 cells): 85%
- IC50 [4, 7]: 7 nM
- IC50 [5]: 0.1 nM
- IC50 [6, 7]: 155 nM

Compound: CCOc1ccc(C2=C(c3ccc(O[C@H]4CCN(CCCF)C4)cc3)c3ccc(O)cc3SCC2)c(F)c1 [Example 196, 4-(4-ethoxy-2-fluoro-phenyl)-5-[4-[(3S)-1-(3-fluoropropyl)pyrrolidin-3-yl]oxyphenyl]-2,3-dihydro-1-benzothiepin-8-ol]
- IC50 [1]: 6 nM
- IC50 [2]: 0.4 nM
- IC50 [3, 7]: 36 nM
- DC50 (ERα in MCF7 cells): 0.3 nM
- % Degradation at 3 μM (ERα in MCF7 cells): 93%
- IC50 [4, 7]: 3 nM
- IC50 [5]: 1 nM
- IC50 [6, 7]: 63 nM

Compound: Oc1ccc2c(c1)OCC(c1ccc(Cl)cc1Cl)=C2c1ccc(O[C@H]2CCN(CCCF)C2)cc1 [Example 81, 3-(2,4-dichlorophenyl)-4-[4-[(3S)-1-(3-fluoropropyl)pyrrolidin-3-yl]oxyphenyl]-2H-chromen-7-ol]
- IC50 [1]: 17 nM
- IC50 [2]: 18 nM
- IC50 [3, 7]: > 4000 nM
- DC50 (ERα in MCF7 cells): 7 nM
- % Degradation at 3 μM (ERα in MCF7 cells): 77%
- IC50 [4, 7]: 520 nM
- IC50 [5]: 3.5 nM
- IC50 [6, 7]: > 4000 nM
